Converted amounts (≈) assume the structure as drawn. Structures can show the parent of a compound that is named as a salt.
Key:
Assay type in all cases: physicochemical
[1] = Solubility study in artificial gastric fluid (saturated solutions, HPLC linear equation; Pharmacopoeia and BCS classification); conditions: for Pharmacopoeia of the People's Republic of China Solubility level / Solubility in artificial gastric fluid, 1 h / Solubility in artificial gastric fluid, 4 h / Solubility in artificial gastric fluid, 24 h / BCS level (Do): artificial gastric fluid; for Solubility in artificial gastric fluid compared with water: artificial gastric fluid versus water; for Solubility in artificial gastric fluid, 1 h / Solubility in artificial gastric fluid, 4 h / Solubility in artificial gastric fluid, 24 h: saturated solution; for Solubility in artificial gastric fluid, 1 h: standing 1 hour; for Solubility in artificial gastric fluid, 4 h: standing 4 hours; for Solubility in artificial gastric fluid, 24 h: standing 24 hours; for BCS level (Do): Do=(Mo/Vo)/Cs, Mo 80 mg, Vo about 250 ml, Do≤1 solubility high, Do>1 low; for Degradation in the solubility study: water and artificial gastric fluid, up to 24 hours
Source text: (§1) Various pharmaceutically acceptable salts of EGFR inhibitor present in form of crystal in Examples 1 to 3 and 5 to 6 were classified with reference to the relevant requirements of the Pharmacopoeia of the People's Republic of China and the Bio-pharmaceutics Classification System (BCS).
(§2) (a) Relevant Requirements of Solubility in the Pharmacopoeia of the People's Republic of China, 2015 Edition, General Notices:
(§3) (b) Relevant Requirements of Solubility in BCS: Do=(Mo/Vo)/Cs;
(§4) wherein Do: dose index; Mo: highest single dose of the drug (with reference to the relevant dose of osimertinib, tentatively set to 80 mg); Vo: the volume of body fluid required for dissolving the drug (about 250 ml); Cs: saturated solubility of the drug;
(§5) if Do≤1, solubility is high; and if Do>1, solubility is low.
(§6) Using an EGFR inhibitor free base as a control, linear regression was carried out by plotting peak area versus concentration, and the corresponding linear equation was obtained in the range of 0.025 to 1.5 mg/ml: A=19775.0411c+2.4256, r=1.0000.
Artificial gastric fluid was used as solvent. An appropriate amount of the EGFR inhibitor mesylate salt (crystal form A), p-toluenesulfonate salt (crystal form B), phosphate salt (crystal form C), phosphate salt (amorphous), hydrochloride salt (crystal form C), and citrate salt (crystal form E) prepared in Examples 1 to 6 was weighed, and prepared into saturated solutions. Samples were taken after standing for 1 hour, 4 hours, and 24 hours, respectively, and the concentration of each sample in saturation state was calculated according to the linear equation.

[2] = One month accelerated stability study at 40° C./75% RH (shape, purity, XRPD); conditions: for XRPD pattern (0 month versus 1 month) / Appearance, 1 month / Purity (%), 1 month: after 1 month at 40° C./75% RH; for Appearance, 0 month / Purity (%), 0 month: start of study (0 month)
Protocol: The six pharmaceutically acceptable salts of EGFR inhibitor in Examples 1 to 6 were placed in a condition of 40° C./75% RH, and a one month accelerated stability study was carried out. Samples were taken at the end of 0 and 1 month respectively, and emphasis was placed upon the shape, purity and crystal form stability (XRPD pattern) of the samples.
Stable refers to no occurrence of degradation and no detection of transformation to other crystal forms by analytical means such as chromatography and XRPD.

[3] = Solubility study in water (saturated solutions, HPLC linear equation; Pharmacopoeia and BCS classification); conditions: in water and artificial gastric fluid
[4] = as above; conditions: for BCS level (Do): Do=(Mo/Vo)/Cs, Mo 80 mg, Vo about 250 ml, Do≤1 solubility high, Do>1 low; for Solubility in water, 1 h / Solubility in water, 4 h / Solubility in water, 24 h: saturated solution; for Solubility in water, 1 h: standing 1 hour; for Solubility in water, 4 h: standing 4 hours; for Solubility in water, 24 h: standing 24 hours
Source text: as §1, §2, §3, §4, §5, §6
Water was used as solvent. An appropriate amount of the EGFR inhibitor mesylate salt, p-toluenesulfonate salt, phosphate salt, hydrochloride salt and citrate salt prepared in Examples 1 to 3 and 5 to 6 was weighed, and prepared into saturated solutions. Samples were taken after standing for 1 hour, 4 hours, and 24 hours, respectively, and the concentration of each sample in saturation state was calculated according to the linear equation.

[5] = Hygroscopicity study of crystal forms (Chinese Pharmacopoeia 2015, part 4, appendix 9103); conditions: for Hygroscopicity as compared with that of the EGFR inhibitor present in a free base form: 25° C./RH 80%; for Weight gain over 6 hours (%) / Weight gain over 24 hours (%) / Hygroscopicity: 25° C.±1° C., relative humidity 80%±2%; for Hygroscopicity: Pharmacopoeia class
Protocol: Hygroscopicity comparison study was carried out for various pharmaceutically acceptable salts of EGFR inhibitor present in the form of crystal in Examples 1 to 3 and 5 to 6, the amorphous EGFR inhibitor phosphate salt in Example 4, and the EGFR inhibitor present in a free base form. Tests were conducted according to the method in the Pharmacopoeia of the People's Republic of China, 2015 edition, part 4, appendix 9103 (temperature: 25° C.±1° C., relative humidity: 80%±2%), and the results were as shown in Table 6.
With regard to the description of hygroscopic properties and definition of hygroscopic weight gain, refer to the Pharmacopoeia of the People's Republic of China, 2015 edition, part 4, appendix 9103, experimental guideline of drug hygroscopicity, herein descried by way of example as follows.
Deliquescence: absorb enough water to form a liquid.
Very hygroscopic: hygroscopic weight gain […] 15%.
Hygroscopic: hygroscopic weight gain less than 15% but not less than 2%.
Non- or almost non-hygroscopic: hygroscopic weight gain less than 0.2%.

[6] = listed as citrate salt (crystal form E)
[7] = listed as hydrochloride salt (crystal form D)
[8] = listed as mesylate salt (crystal form A)
[9] = listed as p-toluenesulfonate salt (crystal form B)

Pharmacopoeia of the People's Republic of China Solubility level [1]	Solubility in artificial gastric fluid, 1 h [1] [mg/mL]	Solubility in artificial gastric fluid, 4 h [1] [mg/mL]	Solubility in artificial gastric fluid, 24 h [1] [mg/mL]	BCS level (Do) [1]	Degradation in the solubility study [1]	XRPD pattern (0 month versus 1 month) [2]	Solubility with reference to Pharmacopoeia solubility classification [3]	Pharmacopoeia of the People's Republic of China Solubility level [4]	BCS level (Do) [4]	Solubility in water, 1 h [4] [mg/mL]	Solubility in water, 4 h [4] [mg/mL]	Solubility in water, 24 h [4] [mg/mL]	Weight gain over 6 hours (%) [5] [%]	Weight gain over 24 hours (%) [5] [%]	Hygroscopicity [5]	SMILES	Solubility in artificial gastric fluid compared with water [1]	also measured
freely soluble	168.51	196.47	176.88	0.0018 < 1	no significant degradation	consistent	high	freely soluble	0.0024 < 1	143.59	137.34	133.57	2.23	2.48	hygroscopic	C=CC(=O)Nc1cc(Nc2nccc(-c3cn(C)c4cccnc34)n2)c(OC)cc1N(C)CCN(C)C [citrate salt]	higher solubility in artificial gastric fluid than in water	Appearance, 1 month [2, 6]: light grey solid; Purity (%), 1 month [2, 6]: 99.1%; Appearance, 0 month [2, 6]: light grey solid; Purity (%), 0 month [2, 6]: 98.9%; Hygroscopicity as compared with that of the EGFR inhibitor present in a free base form ([5]; listed as citrate salt crystal form E): comparable hygroscopicity
	0.84 (≈ 1680 µM)	0.86 (≈ 1720 µM)	0.71 (≈ 1420 µM)	0.4515 < 1	no significant degradation				606.30 > 1	<0.025	<0.025	<0.025	1.7	2.2	hygroscopic	C=CC(=O)Nc1cc(Nc2nccc(-c3cn(C)c4cccnc34)n2)c(OC)cc1N(C)CCN(C)C [free base]	higher solubility in artificial gastric fluid than in water	
soluble	83.79	79.18	70.03	0.0046 < 1	no significant degradation	consistent		sparingly soluble	0.0302 < 1	13.43	11.09	10.59	0.72	1.29	slightly hygroscopic	C=CC(=O)Nc1cc(Nc2nccc(-c3cn(C)c4cccnc34)n2)c(OC)cc1N(C)CCN(C)C [hydrochloride salt]	higher solubility in artificial gastric fluid than in water	Appearance, 1 month [2, 7]: tan solid; Purity (%), 1 month [2, 7]: 99.3%; Appearance, 0 month [2, 7]: tan solid; Purity (%), 0 month [2, 7]: 99.2%; Hygroscopicity as compared with that of the EGFR inhibitor present in a free base form ([5]; listed as hydrochloride salt crystal form D): lower hygroscopicity
freely soluble	248.77	370.37	379.12	0.0008 < 1	no significant degradation	consistent	high	freely soluble	0.0013 < 1	223.02	224.00	255.75	6.86	10.64	hygroscopic	C=CC(=O)Nc1cc(Nc2nccc(-c3cn(C)c4cccnc34)n2)c(OC)cc1N(C)CCN(C)C [mesylate salt]	higher solubility in artificial gastric fluid than in water	Appearance, 1 month [2, 8]: light brown solid; Purity (%), 1 month [2, 8]: 99.2%; Appearance, 0 month [2, 8]: light brown solid; Purity (%), 0 month [2, 8]: 99.0%; Hygroscopicity as compared with that of the EGFR inhibitor present in a free base form ([5]; listed as mesylate salt crystal form A): higher hygroscopicity
soluble	46.21	46.75	47.03	0.0068 < 1	no significant degradation	consistent		slightly soluble	0.2057 < 1	1.82	1.78	1.56	0.04	0.04		C=CC(=O)Nc1cc(Nc2nccc(-c3cn(C)c4cccnc34)n2)c(OC)cc1N(C)CCN(C)C [p-toluenesulfonate salt]	higher solubility in artificial gastric fluid than in water	Appearance, 1 month [2, 9]: light tan solid; Purity (%), 1 month [2, 9]: 98.7%; Appearance, 0 month [2, 9]: light tan solid; Purity (%), 0 month [2, 9]: 98.7%; Hygroscopicity as compared with that of the EGFR inhibitor present in a free base form ([5]; listed as p-toluenesulfonate salt crystal form B): lower hygroscopicity
freely soluble	123.56	136.76	138.91	0.0023 < 1	no significant degradation	consistent	high	freely soluble	0.0034 < 1	88.32	92.14	94.56	1.2	1.5	slightly hygroscopic	C=CC(=O)Nc1cc(Nc2nccc(-c3cn(C)c4cccnc34)n2)c(OC)cc1N(C)CCN(C)C [phosphate salt (amorphous)]	higher solubility in artificial gastric fluid than in water	Appearance, 1 month [2]: light grey solid; Purity (%), 1 month [2]: 98.7%; Appearance, 0 month [2]: light grey solid; Purity (%), 0 month [2]: 98.9%; Hygroscopicity as compared with that of the EGFR inhibitor present in a free base form ([5]; listed as amorphous phosphate salt): lower hygroscopicity

Reference: US10759797B2, “Pharmaceutically acceptable salt of EGFR inhibitor, crystal form thereof, preparation method therefor and application thereof” (Wuxi Shuangliang Biotechnology Co., Ltd., priority 2017, dated 2020)
